Reference: ChEMBL document CHEMBL1201862, “PubChem BioAssay data set” (2004)
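Compound exposure: 48 hours, 5 concentrations, 96-well plates. GI50 is the concentration that inhibits growth by half.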 Active and inactive are the calls of the source. Cut-off read from the data, not from the text of the source: active = GI50 up to about 1.1 µM and inactive = higher.

Key:
Test in all cases: NCI tumour cell line growth inhibition, 48 h
[1] = system: RXF 631
[2] = system: M19-MEL
[3] = system: XF498
[4] = system: SNB-78
[5] = system: LXFL 529
[6] = system: DMS-273
[7] = system: DMS-114
[8] = system: HOP-18
[9] = system: KM-20L2

## CCCCCCCCCCCCCCCCCC(=O)NCC(COP(=O)(O)O)OCC (centres undefined)
[1]
  GI50: 25.8 µM (inactive)
[2]
  GI50: > 100 µM (inactive)
[3]
  GI50: 51.8 µM (inactive)
[4]
  GI50: 22.5 µM (inactive)
[5]
  GI50: > 100 µM (inactive)
[6]
  GI50: 77.1 µM (inactive)
[7]
  GI50: 33.6 µM (inactive)

## Cc1ccc(C(=O)O/N=C2/CCC/C2=C\c2ccccc2)cc1
[8]
  GI50: > 100 µM (inactive)
[9]
  GI50: > 100 µM (inactive)
[2]
  GI50: > 100 µM (inactive)
[4]
  GI50: > 100 µM (inactive)
[5]
  GI50: > 100 µM (inactive)
[6]
  GI50: > 100 µM (inactive)
[7]
  GI50: > 100 µM (inactive)

## COc1ccc(/C=C/C(=O)c2sc(Nc3ccc([N+](=O)[O-])cc3)nc2C)cc1
[8]
  GI50: 78.2 µM (inactive)
[9]
  GI50: 48.6 µM (inactive)
[1]
  GI50: 34.2 µM (inactive)
[2]
  GI50: 53.1 µM (inactive)
[4]
  GI50: 46.2 µM (inactive)
[6]
  GI50: 41.1 µM (inactive)
[7]
  GI50: 31.3 µM (inactive)

## Cn1c(CBr)nc2c1C(=O)c1nc(CBr)[nH]c(=O)c1C2=O
[8]
  GI50: > 100 µM (inactive)
[9]
  GI50: 46.1 µM (inactive)
[1]
  GI50: > 100 µM (inactive)
[2]
  GI50: 26.8 µM (inactive)
[5]
  GI50: 53.7 µM (inactive)
[7]
  GI50: > 100 µM (inactive)

## CC(c1ccc(Br)cc1)C(C(=O)O)C(=O)O (centres undefined)
[8]
  GI50: > 100 µM (inactive)
[9]
  GI50: > 100 µM (inactive)
[2]
  GI50: > 100 µM (inactive)
[4]
  GI50: > 100 µM (inactive)
[5]
  GI50: > 100 µM (inactive)
[6]
  GI50: > 100 µM (inactive)
[7]
  GI50: > 100 µM (inactive)

## C#CCN(N=O)C(=O)NCCCC(NC(C)=O)C(=O)NCc1ccccc1 (centres undefined)
[8]
  GI50: > 100 µM (inactive)
[9]
  GI50: > 100 µM (inactive)
[1]
  GI50: > 100 µM (inactive)
[2]
  GI50: > 100 µM (inactive)
[3]
  GI50: 0.0526 µM (active)
[4]
  GI50: > 100 µM (inactive)
[5]
  GI50: > 100 µM (inactive)
[7]
  GI50: > 100 µM (inactive)

## CN1/C(=C/C(=O)c2ccc(Cl)cc2)Nc2ccccc21
[9]
  GI50: 29.2 µM (inactive)
[1]
  GI50: 43.3 µM (inactive)
[2]
  GI50: 38.2 µM (inactive)
[3]
  GI50: 60.3 µM (inactive)
[4]
  GI50: > 100 µM (inactive)
[5]
  GI50: 33.2 µM (inactive)

## CN1c2c(O)nc(N)nc2NCC1CCNc1ccc(C(=O)NC(CCC(=O)O)C(=O)O)cc1 (centres undefined)
[8]
  GI50: 1550 µM (inactive)
[9]
  GI50: 573 µM (inactive)
[2]
  GI50: 222 µM (inactive)
[3]
  GI50: 394 µM (inactive)
[4]
  GI50: 1130 µM (inactive)
[6]
  GI50: 15.1 µM (inactive)
[7]
  GI50: 294 µM (inactive)

## CCCCCCCC(=O)OC(CBr)COC(=O)C(C)(C)C (centres undefined)
[8]
  GI50: > 100 µM (inactive)
[9]
  GI50: > 100 µM (inactive)
[1]
  GI50: > 100 µM (inactive)
[2]
  GI50: > 84.1 µM (inactive)
[3]
  GI50: > 100 µM (inactive)
[4]
  GI50: > 100 µM (inactive)
[5]
  GI50: > 100 µM (inactive)
[6]
  GI50: > 84.5 µM (inactive)
[7]
  GI50: > 77.1 µM (inactive)

## O=[N+]([O-])C1(CO)COC2(OC1)c1ccccc1-c1ccccc12
[8]
  GI50: > 100 µM (inactive)
[9]
  GI50: > 100 µM (inactive)
[1]
  GI50: > 100 µM (inactive)
[2]
  GI50: > 100 µM (inactive)
[4]
  GI50: > 100 µM (inactive)
[5]
  GI50: > 100 µM (inactive)
[6]
  GI50: > 100 µM (inactive)
[7]
  GI50: > 100 µM (inactive)

## O=[N+]([O-])c1cccc2nc3ccccc3c(NCCN(CCO)CCO)c12
[8]
  GI50: 0.0443 µM (active)
[9]
  GI50: 0.00509 µM (active)
[1]
  GI50: 0.00457 µM (active)
[3]
  GI50: 0.00512 µM (active)
[4]
  GI50: 0.0221 µM (active)
[5]
  GI50: 0.0187 µM (active)
[6]
  GI50: 0.012 µM (active)

## N#C/C(=C1\SC(/N=N/c2ccc(Cl)cc2)C(=O)N1c1ccccc1)c1nc2ccccc2[nH]1 (centres undefined)
[9]
  GI50: > 100 µM (inactive)
[2]
  GI50: 28.1 µM (inactive)
[3]
  GI50: 31.3 µM (inactive)
[4]
  GI50: 42.1 µM (inactive)
[5]
  GI50: 24.6 µM (inactive)
[6]
  GI50: 36.8 µM (inactive)

## COc1ccc(/C=C2\CCC(CN(C)C)C2=O)cc1OC (centres undefined)
[8]
  GI50: 20.8 µM (inactive)
[9]
  GI50: 12.8 µM (inactive)
[1]
  GI50: 6.84 µM (inactive)
[2]
  GI50: 7 µM (inactive)
[3]
  GI50: 13.5 µM (inactive)
[4]
  GI50: 17.5 µM (inactive)
[5]
  GI50: 2.43 µM (inactive)
[6]
  GI50: 14.4 µM (inactive)
[7]
  GI50: 12.5 µM (inactive)

## O=C1C=C(Br)C(=O)C(Br)=C1
[8]
  GI50: > 100 µM (inactive)
[9]
  GI50: > 100 µM (inactive)
[1]
  GI50: > 100 µM (inactive)
[2]
  GI50: > 53.5 µM (inactive)
[3]
  GI50: > 100 µM (inactive)
[4]
  GI50: > 100 µM (inactive)
[5]
  GI50: 54.5 µM (inactive)
[6]
  GI50: > 100 µM (inactive)
[7]
  GI50: > 72.4 µM (inactive)

## COc1ccc(N2C(=O)C3c4[nH]c5ccccc5c4C4CCCCCCCCCCC4C3C2=O)cc1 (centres undefined)
[8]
  GI50: 3.03 µM (inactive)
[9]
  GI50: 3.15 µM (inactive)
[2]
  GI50: 25.1 µM (inactive)
[3]
  GI50: 12.9 µM (inactive)
[5]
  GI50: 6.93 µM (inactive)
[6]
  GI50: 6.31 µM (inactive)
[7]
  GI50: 18 µM (inactive)

## Cc1ccc(S(=O)(=O)NC(=O)C2S(=O)(=O)OCCOS2(=O)=O)cc1
[1]
  GI50: > 100 µM (inactive)
[2]
  GI50: > 100 µM (inactive)
[3]
  GI50: > 100 µM (inactive)
[4]
  GI50: > 100 µM (inactive)
[5]
  GI50: > 100 µM (inactive)
[6]
  GI50: > 100 µM (inactive)

## CCOC(=O)c1[nH]c(COC(C)=O)c2c1CCCCCCCCCC2
[8]
  GI50: > 100 µM (inactive)
[9]
  GI50: > 100 µM (inactive)
[2]
  GI50: > 100 µM (inactive)
[3]
  GI50: > 100 µM (inactive)
[4]
  GI50: > 100 µM (inactive)
[5]
  GI50: > 100 µM (inactive)
[6]
  GI50: > 100 µM (inactive)
[7]
  GI50: > 100 µM (inactive)

## CN(C)c1ccc(/C=c2\sc3nnc(-c4cccnc4)n3c2=O)cc1
[8]
  GI50: > 100 µM (inactive)
[9]
  GI50: > 100 µM (inactive)
[2]
  GI50: > 100 µM (inactive)
[3]
  GI50: > 100 µM (inactive)
[4]
  GI50: > 100 µM (inactive)
[5]
  GI50: > 100 µM (inactive)
[6]
  GI50: > 100 µM (inactive)
[7]
  GI50: > 100 µM (inactive)

## CC(C)C(Sc1nc(-c2ccccc2)c(-c2ccccc2)[nH]1)c1n[nH]c(=S)n1-c1ccccc1 (centres undefined)
[9]
  GI50: 29.1 µM (inactive)
[2]
  GI50: 17.5 µM (inactive)
[3]
  GI50: 37.7 µM (inactive)
[4]
  GI50: 46 µM (inactive)
[5]
  GI50: 18.5 µM (inactive)
[6]
  GI50: 23.6 µM (inactive)

## CSc1nc(NC2OCC(OC(C)=O)C(OC(C)=O)C2OC(C)=O)c(/N=C\C=N\c2c(NC3OCC(OC(C)=O)C(OC(C)=O)C3OC(C)=O)nc(SC)n(C)c2=O)c(=O)n1C (centres undefined)
[8]
  GI50: > 100 µM (inactive)
[9]
  GI50: > 100 µM (inactive)
[2]
  GI50: > 100 µM (inactive)
[5]
  GI50: > 100 µM (inactive)
[6]
  GI50: > 100 µM (inactive)
[7]
  GI50: > 100 µM (inactive)

## C=CC[P@@]1(=O)O[C@H](c2ccccc2)C(C)N1C(C)C (some centres undefined)
[8]
  GI50: > 100 µM (inactive)
[1]
  GI50: > 100 µM (inactive)
[2]
  GI50: > 100 µM (inactive)
[3]
  GI50: > 100 µM (inactive)
[4]
  GI50: > 100 µM (inactive)
[5]
  GI50: > 100 µM (inactive)
[6]
  GI50: > 100 µM (inactive)
[7]
  GI50: > 100 µM (inactive)

## COc1cc(/C=C/c2ccc(OC(C)=O)cc2)cc(OC)c1OC
[8]
  GI50: 55.3 µM (inactive)
[9]
  GI50: 33.7 µM (inactive)
[1]
  GI50: 11.6 µM (inactive)
[2]
  GI50: 39.9 µM (inactive)
[4]
  GI50: 35.1 µM (inactive)
[5]
  GI50: 29.3 µM (inactive)
[6]
  GI50: 26.9 µM (inactive)
[7]
  GI50: 22.9 µM (inactive)

## COc1cc(/C=C\c2ccccc2)cc(OC)c1OC
[8]
  GI50: > 36.8 µM (inactive)
[9]
  GI50: 1.64 µM (inactive)
[1]
  GI50: 8.87 µM (inactive)
[2]
  GI50: 5.31 µM (inactive)
[3]
  GI50: 3.9 µM (inactive)
[4]
  GI50: 7.83 µM (inactive)
[5]
  GI50: 6.56 µM (inactive)
[6]
  GI50: 1.24 µM (inactive)
[7]
  GI50: 3.06 µM (inactive)
